Reference: patent US10829501B2 (BRISTOL-MYERS SQUIBB COMPANY, priority 2016, dated 2020)

target: ROCK2 (Homo sapiens, UniProt O75116); assay: ROCK2 kinase inhibition assay (LABCHIP 3000 Reader, FITC peptide substrate);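 also: rho kinase reaction read by separating phosphorylated from unphosphorylated peptide on chip, with inhibition of kinase activity computed per concentration across a dose-response series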
Sequence (O75116 whole entry, species assumed): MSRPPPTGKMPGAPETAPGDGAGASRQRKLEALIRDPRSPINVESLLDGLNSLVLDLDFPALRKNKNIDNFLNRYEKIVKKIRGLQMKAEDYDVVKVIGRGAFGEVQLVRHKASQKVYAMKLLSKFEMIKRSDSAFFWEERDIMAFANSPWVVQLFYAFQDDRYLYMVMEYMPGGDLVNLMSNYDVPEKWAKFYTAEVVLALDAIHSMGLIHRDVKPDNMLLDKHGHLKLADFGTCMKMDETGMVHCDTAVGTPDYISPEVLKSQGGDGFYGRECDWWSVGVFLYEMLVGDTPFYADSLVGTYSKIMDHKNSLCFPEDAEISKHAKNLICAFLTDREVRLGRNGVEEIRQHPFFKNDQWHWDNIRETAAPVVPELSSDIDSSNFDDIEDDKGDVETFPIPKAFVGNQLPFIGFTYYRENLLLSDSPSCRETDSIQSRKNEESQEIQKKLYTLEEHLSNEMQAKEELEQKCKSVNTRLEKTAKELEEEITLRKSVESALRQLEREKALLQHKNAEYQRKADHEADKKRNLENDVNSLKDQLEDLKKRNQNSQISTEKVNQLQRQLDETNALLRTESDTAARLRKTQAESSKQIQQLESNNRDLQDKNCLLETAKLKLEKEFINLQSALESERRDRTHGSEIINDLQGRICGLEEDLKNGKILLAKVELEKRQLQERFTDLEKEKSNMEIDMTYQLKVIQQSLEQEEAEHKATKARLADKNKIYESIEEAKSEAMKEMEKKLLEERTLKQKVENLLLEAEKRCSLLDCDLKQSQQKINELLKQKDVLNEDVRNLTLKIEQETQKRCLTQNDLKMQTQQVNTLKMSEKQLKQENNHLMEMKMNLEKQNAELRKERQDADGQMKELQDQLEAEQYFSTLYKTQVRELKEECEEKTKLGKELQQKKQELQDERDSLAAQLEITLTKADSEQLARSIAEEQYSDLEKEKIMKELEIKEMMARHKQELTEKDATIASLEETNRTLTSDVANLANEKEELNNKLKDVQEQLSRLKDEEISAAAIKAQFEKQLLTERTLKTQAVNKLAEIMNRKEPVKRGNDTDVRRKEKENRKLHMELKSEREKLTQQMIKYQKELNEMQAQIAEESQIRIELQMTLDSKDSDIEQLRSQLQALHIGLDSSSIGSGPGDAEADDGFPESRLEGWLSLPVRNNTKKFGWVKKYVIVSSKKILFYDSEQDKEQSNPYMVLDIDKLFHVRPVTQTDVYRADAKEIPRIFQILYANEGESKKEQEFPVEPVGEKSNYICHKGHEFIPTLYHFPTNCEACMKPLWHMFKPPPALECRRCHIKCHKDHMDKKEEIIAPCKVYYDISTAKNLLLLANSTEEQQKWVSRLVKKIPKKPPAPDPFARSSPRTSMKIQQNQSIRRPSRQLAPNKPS

SMILES	IC50 [nM]
CC(C)(O)COc1ccc2c(C(=O)NC3CC4(C3)CC(Oc3cc(CCCN5CCOCC5)ccc3C(N)=O)C4)cnn2c1 (centres unmarked) [Example 264, N-(6-(2-carbamoyl-5-(3-morpholinopropyl)phenoxy)spiro[3.3]heptan-2-yl)-6-(2-hydroxy-2-methylpropoxy)pyrazolo[1,5-a]pyridine-3-carboxamide]	50 to 250
CN1CCN(CCCc2ccc(C(N)=O)c(OC3CC4(CC(NC(=O)c5cnn6cc(OCC(C)(C)O)ccc56)C4)C3)c2)CC1 (centres unmarked) [Example 266, N-(6-(2-carbamoyl-5-(3-(4-methylpiperazin-1-yl)propyl)phenoxy)spiro[3.3]heptan-2-yl)-6-(2-hydroxy-2-methylpropoxy)pyrazolo[1,5-a]pyridine-3-carboxamide]	50 to 250
CC(C)(O)COc1ccc2c(C(=O)NC3CC4(C3)CC(Oc3c(F)cc(F)cc3C(N)=O)C4)cnn2c1 (centres unmarked) [Example 268, N-(6-(2-carbamoyl-4,6-difluorophenoxy)spiro[3.3]heptan-2-yl)-6-(2-hydroxy-2-methylpropoxy)pyrazolo[1,5-a]pyridine-3-carboxamide]	250 to 2500
CC(C)(O)COc1ccc2c(C(=O)NC3CC4(C3)CC(Oc3c(F)cc(F)cc3C(N)=O)C4)cnn2c1C1CC1 (centres unmarked) [Example 269, N-(6-(2-carbamoyl-4,6-difluorophenoxy)spiro[3.3]heptan-2-yl)-7-cyclopropyl-6-(2-hydroxy-2-methylpropoxy)pyrazolo[1,5-a]pyridine-3-carboxamide]	50 to 250
CC(C)(O)COc1ccc2c(C(=O)NC3CC4(C3)CC(Oc3ccc(F)cc3C(N)=O)C4)cnn2c1 (centres unmarked) [Example 270, N-(6-(2-carbamoyl-4-fluorophenoxy)spiro[3.3]heptan-2-yl)-6-(2-hydroxy-2-methylpropoxy)pyrazolo[1,5-a]pyridine-3-carboxamide]	50 to 250
CC(C)(O)COc1ccc2c(C(=O)NC3CC4(C3)CC(Oc3cc(C5CC5)ccc3C(N)=O)C4)cnn2c1 (centres unmarked) [Example 273, N-(6-(2-carbamoyl-5-cyclopropylphenoxy)spiro[3.3]heptan-2-yl)-6-(2-hydroxy-2-methylpropoxy)pyrazolo[1,5-a]pyridine-3-carboxamide]	5 to 50
Cn1cc(-c2ccc(C(N)=O)c(OC3CC4(CC(NC(=O)c5cnn6cc(OCC(C)(C)O)ccc56)C4)C3)c2)cn1 (centres unmarked) [Example 275, N-(6-(2-carbamoyl-5-(1-methyl-1H-pyrazol-4-yl)phenoxy)spiro[3.3]heptan-2-yl)-6-(2-hydroxy-2-methylpropoxy)pyrazolo[1,5-a]pyridine-3-carboxamide]	5 to 50
CC(C)(O)COc1ccc2c(C(=O)NC3CC4(C3)CC(Oc3cc(-c5cnn(C6CC6)c5)ccc3C(N)=O)C4)cnn2c1 (centres unmarked) [Example 277, N-(6-(2-carbamoyl-5-(1-cyclopropyl-1H-pyrazol-4-yl)phenoxy)spiro[3.3]heptan-2-yl)-6-(2-hydroxy-2-methylpropoxy)pyrazolo[1,5-a]pyridine-3-carboxamide]	5 to 50
CC(C)(O)COc1ccc2c(C(=O)NC3CC4(C3)CC(Oc3cc(-c5cnn(C6CCOCC6)c5)ccc3C(N)=O)C4)cnn2c1 (centres unmarked) [Example 278, N-(6-(2-carbamoyl-5-(1-(tetrahydro-2H-pyran-4-yl)-1H-pyrazol-4-yl)phenoxy)spiro[3.3]heptan-2-yl)-6-(2-hydroxy-2-methylpropoxy)pyrazolo[1,5-a]pyridine-3-carboxamide]	5 to 50
CC(C)(O)COc1ccc2c(C(=O)NC3CC4(C3)CC(Oc3cc(-c5cnn(CC(C)(C)O)c5)ccc3C(N)=O)C4)cnn2c1 (centres unmarked) [Example 279, N-(6-(2-carbamoyl-5-(1-(2-hydroxy-2-methylpropyl)-1H-pyrazol-4-yl)phenoxy)spiro[3.3]heptan-2-yl)-6-(2-hydroxy-2-methylpropoxy)pyrazolo[1,5-a]pyridine-3-carboxamide]	5 to 50
CC(C)(O)COc1ccc2c(C(=O)NC3CC4(C3)CC(Oc3cc(-c5ccc(C(N)=O)c(F)c5)ccc3C(N)=O)C4)cnn2c1 (centres unmarked) [Example 280, 3-fluoro-3′-((6-(6-(2-hydroxy-2-methylpropoxy)pyrazolo[1,5-a]pyridine-3-carboxamido)spiro[3.3]heptan-2-yl)oxy)-[1,1′-biphenyl]-4,4′-dicarboxamide]	5 to 50
CC(C)(O)COc1ccc2c(C(=O)NC3CC4(C3)CC(Oc3cc(-c5ccc(CN6CCOCC6)s5)ccc3C(N)=O)C4)cnn2c1 (centres unmarked) [Example 281, N-(6-(2-carbamoyl-5-(5-(morpholinomethyl)thiophen-2-yl)phenoxy)spiro[3.3]heptan-2-yl)-6-(2-hydroxy-2-methylpropoxy)pyrazolo[1,5-a]pyridine-3-carboxamide]	5 to 50
CCOC(=O)Cc1cccc(-c2ccc(C(N)=O)c(OC3CC4(CC(NC(=O)c5cnn6cc(OCC(C)(C)O)ccc56)C4)C3)c2)c1 (centres unmarked) [Example 282, ethyl 2-(4′-carbamoyl-3′-((6-(6-(2-hydroxy-2-methylpropoxy)pyrazolo[1,5-a]pyridine-3-carboxamido)spiro[3.3]heptan-2-yl)oxy)-[1,1′-biphenyl]-3-yl)acetate]	5 to 50
CC(C)(O)COc1ccc2c(C(=O)NC3CC4(C3)CC(Oc3cc(-c5cc(F)c(F)c(F)c5)ccc3C(N)=O)C4)cnn2c1 (centres unmarked) [Example 283, N-(6-((4-carbamoyl-3′,4′,5′-trifluoro-[1,1′-biphenyl]-3-yl)oxy)spiro[3.3]heptan-2-yl)-6-(2-hydroxy-2-methylpropoxy)pyrazolo[1,5-a]pyridine-3-carboxamide]	50 to 250
CN(C)CCNC(=O)c1cccc(-c2ccc(C(N)=O)c(OC3CC4(CC(NC(=O)c5cnn6cc(OCC(C)(C)O)ccc56)C4)C3)c2)c1 (centres unmarked) [Example 285, N3-(2-(dimethylamino)ethyl)-3′-((6-(6-(2-hydroxy-2-methylpropoxy)pyrazolo[1,5-a]pyridine-3-carboxamido)spiro[3.3]heptan-2-yl)oxy)-[1,1′-biphenyl]-3,4′-dicarboxamide]	5 to 50
CC(C)(O)COc1ccc2c(C(=O)NC3CC4(C3)CC(Oc3cc(-c5ccc(S(C)(=O)=O)cc5)ccc3C(N)=O)C4)cnn2c1 (centres unmarked) [Example 286, N-(6-((4-carbamoyl-4′-(methylsulfonyl)-[1,1′-biphenyl]-3-yl)oxy)spiro[3.3]heptan-2-yl)-6-(2-hydroxy-2-methylpropoxy)pyrazolo[1,5-a]pyridine-3-carboxamide]	5 to 50
CNC(=O)c1cccc(-c2ccc(C(N)=O)c(OC3CC4(CC(NC(=O)c5cnn6cc(OCC(C)(C)O)ccc56)C4)C3)c2)c1 (centres unmarked) [Example 287, 3′-((6-(6-(2-hydroxy-2-methylpropoxy)pyrazolo[1,5-a]pyridine-3-carboxamido)spiro[3.3]heptan-2-yl)oxy)-N3-methyl-[1,1′-biphenyl]-3,4′-dicarboxamide]	5 to 50
CC(C)(O)COc1ccc2c(C(=O)NC3CC4(C3)CC(Oc3cc(-c5cccc(OCCCN)c5)ccc3C(N)=O)C4)cnn2c1 (centres unmarked) [Example 288, N-(6-((3′-(3-aminopropoxy)-4-carbamoyl-[1,1′-biphenyl]-3-yl)oxy)spiro[3.3]heptan-2-yl)-6-(2-hydroxy-2-methylpropoxy)pyrazolo[1,5-a]pyridine-3-carboxamide]	5 to 50

Second part, the compound after the results:

IC50 [nM]	SMILES
5 to 50	CN(C)CCCc1ccc(C(N)=O)c(OC2CC3(CC(NC(=O)c4cnn5c(C6CC6)c(OCC(C)(C)O)ccc45)C3)C2)c1 (centres unmarked) [Example 263, N-(6-(2-carbamoyl-5-(3-(dimethylamino)propyl)phenoxy)spiro[3.3]heptan-2-yl)-7-cyclopropyl-6-(2-hydroxy-2-methylpropoxy)pyrazolo[1,5-a]pyridine-3-carboxamide]
5 to 50	CC(C)(O)COc1ccc2c(C(=O)NC3CC4(C3)CC(Oc3cc(CCCN5CCOCC5)ccc3C(N)=O)C4)cnn2c1C1CC1 (centres unmarked) [Example 265, N-(6-(2-carbamoyl-5-(3-morpholinopropyl)phenoxy)spiro[3.3]heptan-2-yl)-7-cyclopropyl-6-(2-hydroxy-2-methylpropoxy)pyrazolo[1,5-a]pyridine-3-carboxamide]
5 to 50	CN1CCN(CCCc2ccc(C(N)=O)c(OC3CC4(CC(NC(=O)c5cnn6c(C7CC7)c(OCC(C)(C)O)ccc56)C4)C3)c2)CC1 (centres unmarked) [Example 267, N-(6-(2-carbamoyl-5-(3-(4-methylpiperazin-1-yl)propyl)phenoxy)spiro[3.3]heptan-2-yl)-7-cyclopropyl-6-(2-hydroxy-2-methylpropoxy)pyrazolo[1,5-a]pyridine-3-carboxamide]
5 to 50	CC(C)(O)COc1ccc2c(C(=O)NC3CC4(C3)CC(Oc3ccc(F)cc3C(N)=O)C4)cnn2c1C1CC1 (centres unmarked) [Example 271, N-(6-(2-carbamoyl-4-fluorophenoxy)spiro[3.3]heptan-2-yl)-7-cyclopropyl-6-(2-hydroxy-2-methylpropoxy)pyrazolo[1,5-a]pyridine-3-carboxamide]
< 5	CC(C)(O)COc1ccc2c(C(=O)NC3CC4(C3)CC(Oc3cc(Br)ccc3C(N)=O)C4)cnn2c1 (centres unmarked) [Example 272, N-(6-(5-bromo-2-carbamoylphenoxy)spiro[3.3]heptan-2-yl)-6-(2-hydroxy-2-methylpropoxy)pyrazolo[1,5-a]pyridine-3-carboxamide]
< 5	CC(C)(O)COc1ccc2c(C(=O)NC3CC4(C3)CC(Oc3cc(C5CC5)ccc3C(N)=O)C4)cnn2c1C1CC1 (centres unmarked) [Example 274, N-(6-(2-carbamoyl-5-cyclopropylphenoxy)spiro[3.3]heptan-2-yl)-7-cyclopropyl-6-(2-hydroxy-2-methylpropoxy)pyrazolo[1,5-a]pyridine-3-carboxamide]
< 5	CC(C)(O)COc1ccc2c(C(=O)NC3CC4(C3)CC(Oc3cc(-c5cccc(S(C)(=O)=O)c5)ccc3C(N)=O)C4)cnn2c1 (centres unmarked) [Example 284, N-(6-((4-carbamoyl-3′-(methylsulfonyl)-[1,1′-biphenyl]-3-yl)oxy)spiro[3.3]heptan-2-yl)-6-(2-hydroxy-2-methylpropoxy)pyrazolo[1,5-a]pyridine-3-carboxamide]
< 5	CC(C)(O)COc1ccc2c(C(=O)NC3CC4(C3)CC(Oc3cc(-c5cccc(C(N)=O)c5)ccc3C(N)=O)C4)cnn2c1 (centres unmarked) [Example 289, 3′-((6-(6-(2-hydroxy-2-methylpropoxy)pyrazolo[1,5-a]pyridine-3-carboxamido)spiro[3.3]heptan-2-yl)oxy)-[1,1′-biphenyl]-3,4′-dicarboxamide]
